Entries after “also recorded” stand apart in the source; their conditions may differ.
Key:
[1] = Serum total thyroxine (T4) by radioimmunoassay in topically treated mice; assay type: in vivo, CD-1 mice; details: mice treated with IOP cream, relative to control mice; listed as IOP
Protocol: Serum total thyroxine levels were measured with a standard radioimmunoassay kit (ICN, Orangeburg, N.Y.). Unlike other thyroid hormone kits which use anti-mouse antibodies, the ICN kit uses anti-rabbit antibodies and avoids spuriously elevated readings in mice. Thyroid hormone levels for mice fall at the low end of the human range so the human standards included in the kit were used.

[2] = system: Human prostate (HPV) cells; assay type: cell-based; details: overnight incubation; 10 μl of 1.5 mM stock per 500 μl medium; ±SEM
Protocol: (§1) Human prostate (HPV) cells were grown under standard conditions. When the cultures reached 40% confluence, the cells were fed basal medium alone for 24 hours and then incubated overnight in medium containing a test substance or sham. The cells were then treated with saturating quantities of ^3H-thymidine (New England Nuclear, Boston, Mass.); DNA was precipitated with 5% perchlorate and relative incorporated thymidine was assessed with a beta counter. Experiments were performed in quadruplicate and averaged. Results reported represent a minimum of three separate quadruplicate experiments.
(§2) The reagents used for tissue culture were iopanoic acid (Sigma, St. Louis, Mo.), sodium ipodate (Fitzgerald Industries International, Flanders, N.J.), and propranolol (Sigma, St. Louis, Mo.). Reagents were dissolved into modestly basic stock solutions to the following final concentrations: 0.025 mM NaOH, 0.2 M NaCl, 1.5 mM reagent. Each experiment used 10 μl of stock reagent (or sham) per 500 μl of medium. For FIGS. 13-18, the “low” concentration is 3 μM for each reagent, and the “high” concentration was 30 μM for each reagent.

epidermal proliferation = experiment: Topical iopanoic acid cream in mice: epidermal thickness and BrdU incorporation; assay type: in vivo, CD-1 mice
Protocol: A topical iopanoic acid (IOP) cream was prepared by mixing IOP (Sigma, St. Louis, Mo.) into a liposome vehicle (Novasome A, IGI inc., New Jersey) previously described (Safer 2001, Safer 2003, Safer 2005). Each mouse received 30 μl of the liposome vehicle applied directly to a 3×3 cm area of shaved skin on the animal's backs. The preparation was applied daily and not removed.
The treatment groups received cream containing 6 mg IOP daily. The control groups were treated with daily application of vehicle alone.
Five week old CD-1 mice were randomized into 2 groups (FIG. 1). The groups had 6 mice each and were evaluated in a crossover study. Each mouse in the crossover study was evaluated twice: once after a 6 mg daily IOP treatment and once after treatment with vehicle alone. Six mice received IOP first followed by a 3 month wash-out/healing completion period. The animals were then evaluated after treatment with topical vehicle alone. Six mice started with vehicle alone and received the IOP treatment after the 3 month wash-out/healing completion period.
All topically treated mice were caged separately to avoid animals receiving doses from their neighbors during grooming. The cream was applied to a midline cephalad region on the animals' backs to minimize the impact of personal grooming on dosing.
Epidermal proliferation was assessed by measuring both epidermal thickness and 5-bromo-2′-deoxyuridine (BrdU, Boehringer Mannheim, Mannheim, Germany) incorporation into DNA. At the completion of the protocols noted, animals were biopsied with full thickness dorsal skin samples were taken. Three hours prior to biopsy, each mouse had received intraperitoneal BrdU as previously described (Safer 2001). Skin samples were fixed in formalin and embedded in paraffin. From each paraffin block, […] sections were made and stained with hematoxylin and eosin (H&E). Epidermal thickness was measured in 10 random locations for each mouse. Additional 5 μm skin histology sections from the above paraffin blocks were stained for BrdU as previously described (Safer 2001). BrdU data are reported as the number of cell nuclei stained/[…] epidermis.

[3] = system: human epidermal keratinocytes; experiment: Human epidermal keratinocyte proliferation, 3H-thymidine incorporation; assay type: cell-based; details: overnight incubation; 10 μl of 1.5 mM stock per 500 μl medium; ±SEM
Protocol: as §1, with “keratinocytes” for “prostate (HPV) cells”, “in primary culture on a support matrix derived from irradiated fibroblasts.” for “under standard conditions.”
as §2

[4] = system: Monkey kidney (CV-1) cells; experiment: Monkey kidney cell proliferation, 3H-thymidine incorporation; assay type: cell-based; details: overnight incubation; 10 μl of 1.5 mM stock per 500 μl medium; ±SEM
Protocol: as §1, with “Monkey kidney (CV-1)” for “Human prostate (HPV)”
as §2

[5] = system: Opossum kidney (OK) cells; experiment: Opossum kidney cell proliferation, 3H-thymidine incorporation; assay type: cell-based; details: overnight incubation; 10 μl of 1.5 mM stock per 500 μl medium; ±SEM
Protocol: as §1, with “Opossum kidney (OK)” for “Human prostate (HPV)”
as §2

[6] = topical cream, 6 mg IOP daily, vs vehicle, p<0.05

SMILES	serum T4 levels [1]	inhibition of proliferation of human prostate cells relative to control cultures [2] [%]	epidermal proliferation (epidermal proliferation; Group 1 mice: control vehicle first, then IOP (FIG. 2))	epidermal proliferation (epidermal proliferation; Group 2 mice: IOP first, then control vehicle (FIG. 3))	less epidermal BrdU staining than control mice (epidermal proliferation; [6]) [%]	thinner epidermis than control mice (epidermal proliferation; [6]) [%]	inhibition of proliferation of human epidermal keratinocytes relative to control cultures [3] [%]	inhibition of proliferation of monkey kidney cells relative to control cultures [4] [%]	inhibition of proliferation of opossum kidney cells relative to control cultures [5] [%]
CCC(Cc1c(I)cc(I)c(N)c1I)C(=O)O (centres unmarked) [iopanoic acid]	remained steady; also recorded: not changed	26±4	significantly diminished	significantly diminished	30	20	61±9	–	–
O=C(NCC(O)CO)c1c(I)c(C(=O)NCC(O)CO)c(I)c(N(CCO)C(=O)CO)c1I (centres unmarked) [ioversol]	–	22	–	–	–	–	–	–	–
CN(C)/C=N/c1c(I)cc(I)c(CCC(=O)[O-])c1I.[Na+] [ipodate sodium]	–	30±5	–	–	–	–	14±6	–	–
CC(C)NCC(O)COc1cccc2ccccc12 (centres unmarked) [propranolol]	–	84±8	–	–	–	–	62±3	82±5	88±10
